Test results taken from ChEMBL document CHEMBL4811224, “Antibacterial Prenylated p-Hydroxybenzoic Acid Derivatives from Oberonia myosurus and Identification of Putative Prenyltransferases” (2021).
In brackets after ≈: the same amount, converted by molar mass.

Each compound was assayed on Staphylococcus aureus (assay: Antibacterial activity against Staphylococcus aureus subsp. aureus ATCC 29213 assessed as bacterial growth inhibition incubated for 24 hrs by Reed-Muench method).
Format: functional

SMILES | MIC50 [mg/L]
C=C(C)C(O)Cc1cc(C(=O)O)cc2c1OC(C)(C)C=C2 (stereo not drawn) | 81 (≈ 281 µM)
CC(C)=CCc1cc(C(=O)O)cc2c1OC(C)(C)CC2=O | 93 (≈ 323 µM)
CC(C)=CCc1cc(C(=O)O[C@@H]2CC(C(=O)O)=C[C@@H](O)[C@H]2O)cc2c1OC(C)(C)C=C2 | 56 (≈ 131 µM)
C=C(C)C(O)Cc1cc(C(=O)O)cc(CC=C(C)C)c1O (stereo not drawn) | 89 (≈ 307 µM)

The next compounds have a lower MIC50 than those just listed; values first:

MIC50 [mg/L] | SMILES
23 (≈ 58.9 µM) | CC(C)=CCc1cc(C(=O)O[C@H](C)[C@@](C)(O)C(=O)O)cc(CC=C(C)C)c1O
15 (≈ 55.1 µM) | CC(C)=CCc1cc(C(=O)O)cc2c1OC(C)(C)C=C2
0.53 | CC1(C)S[C@@H]2[C@H](NC(=O)Cc3ccccc3)C(=O)N2[C@H]1C(=O)[O-].[Na+] [PENICILLIN G SODIUM]
7.6 (≈ 27.7 µM) | CC(C)=CCc1cc(C(=O)O)cc(CC=C(C)C)c1O
